Measured values from patent publication US8614201B2 (Janssen Pharmaceutica NV, priority 2009, dated 2013).

Biological target: Human TRPA1 (Homo sapiens, UniProt O75762)
Assay: Assay 1: In vitro cellular testing of TRPA1 modulation (CHO-TREx, Fluo-3 calcium fluorescence, AITC agonist)
Format: cell-based
Parameters: expressed in transfected cells; host or cells: CHO-TREx cells (Invitrogen), vector pcDNA4/TO
Settings: CHO-TREx cells expressing human TRPA1; Fluo-3 fluorescence (FLIPR/Tetra); agonist 15 μM allyl isothiocyanate (AITC); 30 minute antagonist incubation
Procedure, shortened: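 Antagonist potency is the 50% reduction of the AITC (15 μM) calcium response, Hill-fitted against no-antagonist and 10 μM ruthenium red controls. Fluo-3-loaded (4 μM) CHO-TREx cells with tetracycline-inducible human TRPA1 got compound in HEPES saline pH 7.4 for 30 min, usually from 10 μM in three-fold dilutions.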

Human TRPA1, sequence (O75762 whole entry): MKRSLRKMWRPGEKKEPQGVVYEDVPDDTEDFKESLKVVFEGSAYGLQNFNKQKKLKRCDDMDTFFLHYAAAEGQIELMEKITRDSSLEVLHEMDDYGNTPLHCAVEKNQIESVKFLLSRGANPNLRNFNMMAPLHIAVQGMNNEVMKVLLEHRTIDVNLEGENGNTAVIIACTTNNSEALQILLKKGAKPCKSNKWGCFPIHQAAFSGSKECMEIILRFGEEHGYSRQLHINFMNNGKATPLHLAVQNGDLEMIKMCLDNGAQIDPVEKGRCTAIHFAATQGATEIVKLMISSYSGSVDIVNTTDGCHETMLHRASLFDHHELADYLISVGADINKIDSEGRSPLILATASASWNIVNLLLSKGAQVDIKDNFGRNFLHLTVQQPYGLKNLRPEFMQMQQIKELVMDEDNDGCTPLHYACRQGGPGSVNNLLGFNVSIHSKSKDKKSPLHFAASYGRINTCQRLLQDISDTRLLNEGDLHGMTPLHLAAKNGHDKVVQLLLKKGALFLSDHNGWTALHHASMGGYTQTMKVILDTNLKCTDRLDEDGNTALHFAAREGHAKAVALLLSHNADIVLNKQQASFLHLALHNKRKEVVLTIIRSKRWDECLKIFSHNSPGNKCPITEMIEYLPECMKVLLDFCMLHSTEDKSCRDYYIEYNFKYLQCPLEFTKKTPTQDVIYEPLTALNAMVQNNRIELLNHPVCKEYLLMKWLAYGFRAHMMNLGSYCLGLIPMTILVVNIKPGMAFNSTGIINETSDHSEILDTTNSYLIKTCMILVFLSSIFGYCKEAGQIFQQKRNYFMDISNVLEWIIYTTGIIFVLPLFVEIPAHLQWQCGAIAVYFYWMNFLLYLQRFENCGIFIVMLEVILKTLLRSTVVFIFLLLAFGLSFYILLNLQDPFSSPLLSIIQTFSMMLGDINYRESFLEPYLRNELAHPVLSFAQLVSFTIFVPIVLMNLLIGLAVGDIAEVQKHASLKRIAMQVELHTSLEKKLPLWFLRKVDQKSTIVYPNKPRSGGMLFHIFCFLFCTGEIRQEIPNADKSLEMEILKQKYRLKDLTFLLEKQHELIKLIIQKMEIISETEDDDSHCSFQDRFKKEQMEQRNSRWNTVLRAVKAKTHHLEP

SMILES	IC50
CN(C)CCN1CCN(c2nc(CNC(=O)[C@@H]3CCCN3S(=O)(=O)c3ccc(F)cc3)cc(-c3ccc(C(F)(F)F)cc3)n2)CC1 [Example 17, 1-(4-Fluoro-benzenesulfonyl)-pyrrolidine-2S-carboxylic acid [2-[4-(2-dimethylamino-ethyl)-piperazin-1-yl]-6-(4-trifluoromethyl-phenyl)-pyrimidin-4-ylmethyl]-amide]	2080 nM
CC(NC(=O)[C@@H]1CCCN1S(=O)(=O)c1ccc(F)cc1)c1cc(-c2ccc(C(F)(F)F)cc2)ncn1 (single isomer, unassigned) [Example 182, (1R*,2S)-1-(4-Fluoro-benzenesulfonyl)-pyrrolidine-2-carboxylic acid {1-[6-(4-trifluoromethyl-phenyl)-pyrimidin-4-yl]-ethyl}-amide]	923 nM
CNc1cc(CNC(=O)[C@@H]2CCCN2S(=O)(=O)c2ccc(Cl)s2)cc(-c2ccc(C(F)(F)F)cc2)n1 [Example 335, 1-[(5-Chlorothiophen-2-yl)sulfonyl]-N-({2-(methylamino)-6-[4-(trifluoromethyl)phenyl]pyridin-4-yl}methyl)-L-prolinamide]	179 nM
O=C(NCc1cccc(-c2cccc(C(F)(F)F)c2)c1)[C@@H]1CCCN1S(=O)(=O)c1ccc(F)cc1 [Example 66, 1-(4-Fluorobenzenesulfonyl)-pyrrolidine-2S-carboxylic acid (3′-trifluoromethylbiphenyl-3-ylmethyl)-amide]	253 nM
O=C(NCc1cc(NCc2cccnc2)nc(-c2ccc(C(F)(F)F)cc2)c1)[C@@H]1C=CCN1S(=O)(=O)c1ccc(F)cc1 [Example 346, (2S)-1-[(4-Fluorophenyl)sulfonyl]-N-({2-[(pyridin-3-ylmethyl)amino]-6-[4-(trifluoromethyl)phenyl]pyridin-4-yl}methyl)-2,5-dihydro-1H-pyrrole-2-carboxamide]	> 10000 nM
CC(Nc1cc(CNC(=O)[C@@H]2CC(F)(F)CN2S(=O)(=O)c2ccc(F)cc2)cc(-c2ccc(C(F)(F)F)cc2)n1)c1ccncc1 (stereo partly drawn) [Example 401, 4,4-Difluoro-1-[(4-fluorophenyl)sulfonyl]-N-({2-[(1-pyridin-4-ylethyl)amino]-6-[4-(trifluoromethyl)phenyl]pyridin-4-yl}methyl)-L-prolinamide]	2520 nM

Stronger by IC50, values ahead:

IC50	SMILES
13 nM	CCc1ccccc1CN1CCN(c2nc(CNC(=O)[C@@H]3CCCN3S(=O)(=O)c3ccc(F)cc3)cc(-c3ccc(C(F)(F)F)cc3)n2)CC1 [Example 52, 1-(4-Fluoro-benzenesulfonyl)-pyrrolidine-2S-carboxylic acid [2-[4-(2-ethyl-benzyl)-piperazin-1-yl]-6-(4-trifluoromethyl-phenyl)-pyrimidin-4-ylmethyl]-amide]
4 nM	O=C(NCc1cccc(-c2ccc(OC(F)(F)F)c(F)c2)c1)[C@@H]1CCCN1S(=O)(=O)c1ccc(F)cc1 [Example 73, 1-(4-Fluorobenzenesulfonyl)-pyrrolidine-2S-carboxylic acid (3′-fluoro-4′-trifluoromethoxybiphenyl-3-ylmethyl)-amide]
44 nM	O=C(NCc1cc(-c2ccc(C(F)(F)F)cc2)ncn1)[C@@H]1CCCN1S(=O)(=O)c1cccc(F)c1 [Example 154, 1-(3-Fluorobenzenesulfonyl)-pyrrolidine-2S-carboxylic acid [6-(4-trifluoromethylphenyl)-pyrimidin-4-ylmethyl]-amide]
